From patent US10307357B2, “Prebiotic oral care compositions containing an alkyl glycoside” (COLGATE-PALMOLIVE COMPANY, priority 2013, dated 2019)

Columns and labels:
Type in all cases: cell-based
Fusobacterium nucleatum = test: Twenty-four hour optical density growth in BHI; settings: over 24 hours, control = 1
Method: (§1) The extent of growth of the tested bacteria in response to selected glycosides (β-methyl-D-galactoside and α-methyl-D-galactoside) was investigated by setting up growth curves in a nutritionally rich medium (brain heart infusion broth (BHI), Oxoid), over 24 hours. Late exponential growth phase liquid cultures were prepared by transferring the respective bacterium from blood agar plates to BHI and overnight incubation at 37° C. in an anaerobic atmosphere for A. viscosus, V. parvula, F. nucleatum, P. gingivalis, P. intermedia, T. forsythia, A. naeslundii, and C. sputigena, and in a 5% CO2 environment for S. salivarius, S. sanguinis, S. mitis, A. actinomycetemcomitans, S. mutans, S. sobrinus and S. gordonii. Overnight cultures were transferred to BHI and adjusted to a concentration of 1×10^7 CFU/ml (colony forming units per ml) by measuring the optical density at 600 nm (OD600) (BioRad SmartSpec 3000). For each strain, 200 μl of the bacterial suspension was added to a 96-well plate containing 20 μl of the respective glycosides. Final concentrations of the glycosides were set to 5, 10, 20 and 25 μmol/ml. […] Plates were incubated as previously described. For each combination of bacterium/glycoside, and for each of their respective controls (i.e. the particular bacterium in the nutritionally rich medium with no glycoside), the optical density was measured at 630 nm (OD630) at 0 h and 24 h (Thermo Scientific Multiskan Ascent). Additionally, the OD630 for combinations of bacterium/glycosides grown in a 5% CO2 environment were also measured every hour between 0 h and 9 h. […] The experiment was carried out on three different days (thus providing 3 biological replicas) and on each day the experiment was carried out in quadruple (thus providing 4 technical replicas) for each combination of bacterium with glycoside and for each control. For each day and for each combination, the average (mean) of the values obtained (as detailed above) for the four technical replicas was calculated to provide a single value for each combination on each day. The values shown in Tables 5 to 6, below, are the average (mean) of the three single values obtained for each combination of bacterium with glycoside (α-Methyl-D-Galactoside=α-MDG; β-Methyl-D-Galactoside=β-MDG).

Streptococcus sobrinus = test: Twenty-four hour optical density growth in BHI; settings: over 24 hours, control = 1
Method: as §1

Streptococcus mitis = test: Twenty-four hour optical density growth in BHI; settings: over 24 hours, control = 1
Method: as §1

Capnocytophaga sputigena [1] = test: Twenty-four hour optical density growth in BHI; settings: over 24 hours, control = 1
Method: as §1

Streptococcus sanguinis = test: Twenty-four hour optical density growth in BHI; settings: over 24 hours, control = 1
Method: as §1

Actinomyces viscosus = test: Twenty-four hour optical density growth in BHI; settings: over 24 hours, control = 1
Method: as §1

Porphyromonas gingivalis = test: Twenty-four hour optical density growth in BHI; settings: over 24 hours, control = 1
Method: as §1

Capnocytophaga sputigena [2] = test: Phenotype microarray metabolic activity; settings: control = 1
Method: (§2) The extent of metabolic activity of the tested bacteria in the presence of the above-mentioned glycosides after 24 hours and 48 hours was investigated through a high throughput phenotype microarray system (PM) for microbial cells (Biolog Inc.). Each PM can contain up to 95 different biochemical compounds (e.g. glycosides) that may act as substrates for bacteria as well as one negative control, not containing the substrates. Microarray plates were used in which the different wells of each plate were pre-loaded (by the manufacturer, Biolog Inc.) with different glycosides to be tested. Each bacterial species was tested using a separate microarray plate. Thus, a single bacterial species was tested with a variety of glycosides on each particular plate. The microarrays are based on redox technology, using cell respiration as a universal reporter. Active cell respiration results in the reduction of a tetrazolium dye and in the formation of a strong color—for example, when using the tetrazolium dye “Biolog Redox Dye Mix D”, the color changes from transparent/colorless to purple when the dye is reduced. The observation of this color change indicates which of the substrates improve the metabolic activity and health of the cells. Each bacterial species was collected from blood agar plates (incubated for 48 hours anaerobically at 37° C.) and transferred to an IF-0 Base inoculation fluid (Biolog Inc.), which is a nutritionally poor medium. The resulting cell suspension was adjusted to a transmittance of 42% (relative to the transmittance of the base inoculation fluid with no bacterial species present) at 492 nm using a BioRad SmartSpec 3000 Photometer (the adjustment being effected by adding either further inoculation fluid or further bacteria until the transmittance of 42% was achieved). A 1:5 dilution of this suspension was prepared by mixing 3 mL of the 42% transmittance cell suspension with […] of an inoculation fluid (which inoculation fluid was formed by mixing 11.6 mL sterile water, 62.5 mL IF-0 base inoculation fluid and 0.9 mL of the tetrazolium dye “Biolog Redox Dye mix D”), resulting in a final cell density which was equal to 85% transmittance using a BioRad SmartSpec 3000 Photometer. For each of the glycosides tested, the microarray plate (obtained from the supplier (Biolog Inc.) with glycosides already present in the relevant wells in powder form) was directly inoculated with 100 μL/well of this 85% transmittance cell suspension. All plates were incubated in an anaerobic atmosphere at 37° C. Color changes were measured spectrophotometrically at 492 nm (Thermo Scientific Multiskan Ascent) at 24 hrs and 48 hrs using the same plate at both time points. […] After 24 hrs and 48 hrs under continuous shaking in a Multiscan microplate reader, the optical density (OD) of the synthetic medium at 24 hours and 48 hours was measured (using the microplate reader) at a wavelength of 492 nm for each combination of bacterium/glycoside, and for each of their respective controls (i.e. which contained the particular bacterium but no glycosides). […] The experiment was carried out three times for each combination of bacterium with glycosides, with each repeat being carried out on a different day (thus providing three biological replicas). The controls were also carried out three times, as above. The values shown are the average (mean) of the three single values obtained (as detailed above) for each combination of bacterium with glycosides, at 24 hrs and at 48 hrs.

Streptococcus gordonii = test: Phenotype microarray metabolic activity; settings: control = 1
Method: as §2

Streptococcus mutans = test: Phenotype microarray metabolic activity; settings: control = 1
Method: as §2

SMILES | maximal OD630 divided by control (extent of growth) (Fusobacterium nucleatum; 5 μmol/ml) | maximal OD630 divided by control (extent of growth) (Fusobacterium nucleatum; 10 μmol/ml) | maximal OD630 divided by control (extent of growth) (Fusobacterium nucleatum; 20 μmol/ml) | maximal OD630 divided by control (extent of growth) (Fusobacterium nucleatum; 25 μmol/ml) | maximal OD630 divided by control (extent of growth) (Streptococcus sobrinus; 5 μmol/ml) | maximal OD630 divided by control (extent of growth) (Streptococcus sobrinus; 10 μmol/ml) | maximal OD630 divided by control (extent of growth) (Streptococcus sobrinus; 20 μmol/ml) | maximal OD630 divided by control (extent of growth) (Streptococcus sobrinus; 25 μmol/ml) | maximal OD630 divided by control (extent of growth) (Streptococcus mitis; 5 μmol/ml) | maximal OD630 divided by control (extent of growth) (Streptococcus mitis; 10 μmol/ml) | maximal OD630 divided by control (extent of growth) (Streptococcus mitis; 20 μmol/ml) | maximal OD630 divided by control (extent of growth) (Streptococcus mitis; 25 μmol/ml) | maximal OD630 divided by control (extent of growth) (Capnocytophaga sputigena [1]; 5 μmol/ml) | maximal OD630 divided by control (extent of growth) (Capnocytophaga sputigena [1]; 10 μmol/ml) | maximal OD630 divided by control (extent of growth) (Capnocytophaga sputigena [1]; 20 μmol/ml) | maximal OD630 divided by control (extent of growth) (Capnocytophaga sputigena [1]; 25 μmol/ml) | maximal OD630 divided by control (extent of growth) (Streptococcus sanguinis; 5 μmol/ml) | maximal OD630 divided by control (extent of growth) (Streptococcus sanguinis; 10 μmol/ml) | maximal OD630 divided by control (extent of growth) (Streptococcus sanguinis; 20 μmol/ml) | maximal OD630 divided by control (extent of growth) (Streptococcus sanguinis; 25 μmol/ml) | other results
CO[C@H]1O[C@H](CO)[C@H](O)[C@H](O)[C@H]1O [α-methyl-D-galactoside] | 0.8598 | 0.8398 | 0.7917 | 0.7921 | 0.9005 | 0.8975 | 0.8858 | 0.9052 | 0.9303 | 0.9337 | 0.8843 | 0.8855 | 0.8698 | 0.8897 | 0.8728 | 0.8809 | 0.9521 | 0.9343 | 0.8872 | 0.9294 | maximal OD630 divided by control (extent of growth) (Actinomyces viscosus; 5 μmol/ml): 0.6181; maximal OD630 divided by control (extent of growth) (Actinomyces viscosus; 10 μmol/ml): 0.5756; maximal OD630 divided by control (extent of growth) (Actinomyces viscosus; 20 μmol/ml): 0.4433; maximal OD630 divided by control (extent of growth) (Actinomyces viscosus; 25 μmol/ml): 0.4453; maximal OD630 divided by control (extent of growth) (Porphyromonas gingivalis; 5 μmol/ml): 0.9298; maximal OD630 divided by control (extent of growth) (Porphyromonas gingivalis; 10 μmol/ml): 0.9747; maximal OD630 divided by control (extent of growth) (Porphyromonas gingivalis; 20 μmol/ml): 0.9132; maximal OD630 divided by control (extent of growth) (Porphyromonas gingivalis; 25 μmol/ml): 0.9353; OD 492 nm divided by control (metabolic activity) (Capnocytophaga sputigena [2]; 24 hrs): 0.5747; OD 492 nm divided by control (metabolic activity) (Capnocytophaga sputigena [2]; 48 hrs): 0.8435; OD 492 nm divided by control (metabolic activity) (Streptococcus gordonii; 24 hrs): 0.8960; OD 492 nm divided by control (metabolic activity) (Streptococcus gordonii; 48 hrs): 0.8401; OD 492 nm divided by control (metabolic activity) (Streptococcus mutans; 24 hrs): 1.0573; OD 492 nm divided by control (metabolic activity) (Streptococcus mutans; 48 hrs): 0.9904
CO[C@@H]1O[C@H](CO)[C@H](O)[C@H](O)[C@H]1O [β-methyl-D-galactoside] | 0.8134 | 0.8181 | 0.8161 | 0.8213 | 0.8914 | 0.8818 | 0.9110 | 0.9111 | 0.8435 | 0.8256 | 0.9114 | 0.8116 | 0.8841 | 0.8633 | 0.8645 | 0.8575 | 0.8787 | 0.8540 | 0.8629 | 0.8842 | maximal OD630 divided by control (extent of growth) (Actinomyces viscosus; 5 μmol/ml): 0.6467; maximal OD630 divided by control (extent of growth) (Actinomyces viscosus; 10 μmol/ml): 0.6333; maximal OD630 divided by control (extent of growth) (Actinomyces viscosus; 20 μmol/ml): 0.6745; maximal OD630 divided by control (extent of growth) (Actinomyces viscosus; 25 μmol/ml): 0.6464; maximal OD630 divided by control (extent of growth) (Porphyromonas gingivalis; 5 μmol/ml): 0.8852; maximal OD630 divided by control (extent of growth) (Porphyromonas gingivalis; 10 μmol/ml): 0.9738; maximal OD630 divided by control (extent of growth) (Porphyromonas gingivalis; 20 μmol/ml): 0.9498; maximal OD630 divided by control (extent of growth) (Porphyromonas gingivalis; 25 μmol/ml): 0.9364; OD 492 nm divided by control (metabolic activity) (Capnocytophaga sputigena [2]; 24 hrs): 1.0421; OD 492 nm divided by control (metabolic activity) (Capnocytophaga sputigena [2]; 48 hrs): 1.0860; OD 492 nm divided by control (metabolic activity) (Streptococcus gordonii; 24 hrs): 1.4834; OD 492 nm divided by control (metabolic activity) (Streptococcus gordonii; 48 hrs): 1.8026; OD 492 nm divided by control (metabolic activity) (Streptococcus mutans; 24 hrs): 1.1594; OD 492 nm divided by control (metabolic activity) (Streptococcus mutans; 48 hrs): 1.0780
